ChEMBL document CHEMBL4818999, “Pyrido[2, 3-d]pyrimidin-7(8H)-ones as new selective orally bioavailable Threonine Tyrosine Kinase (TTK) inhibitors” (Eur J Med Chem, 2021)

Legend:
[1] = target: T1, Dual specificity protein kinase TTK (Homo sapiens, UniProt P33981); experiment: Binding affinity to wild-type human partial length TTK (N505 to V798 residues) expressed in bacterial expression system by active site-directed competition binding based Kinomescan method
T1 sequence (P33981 whole entry): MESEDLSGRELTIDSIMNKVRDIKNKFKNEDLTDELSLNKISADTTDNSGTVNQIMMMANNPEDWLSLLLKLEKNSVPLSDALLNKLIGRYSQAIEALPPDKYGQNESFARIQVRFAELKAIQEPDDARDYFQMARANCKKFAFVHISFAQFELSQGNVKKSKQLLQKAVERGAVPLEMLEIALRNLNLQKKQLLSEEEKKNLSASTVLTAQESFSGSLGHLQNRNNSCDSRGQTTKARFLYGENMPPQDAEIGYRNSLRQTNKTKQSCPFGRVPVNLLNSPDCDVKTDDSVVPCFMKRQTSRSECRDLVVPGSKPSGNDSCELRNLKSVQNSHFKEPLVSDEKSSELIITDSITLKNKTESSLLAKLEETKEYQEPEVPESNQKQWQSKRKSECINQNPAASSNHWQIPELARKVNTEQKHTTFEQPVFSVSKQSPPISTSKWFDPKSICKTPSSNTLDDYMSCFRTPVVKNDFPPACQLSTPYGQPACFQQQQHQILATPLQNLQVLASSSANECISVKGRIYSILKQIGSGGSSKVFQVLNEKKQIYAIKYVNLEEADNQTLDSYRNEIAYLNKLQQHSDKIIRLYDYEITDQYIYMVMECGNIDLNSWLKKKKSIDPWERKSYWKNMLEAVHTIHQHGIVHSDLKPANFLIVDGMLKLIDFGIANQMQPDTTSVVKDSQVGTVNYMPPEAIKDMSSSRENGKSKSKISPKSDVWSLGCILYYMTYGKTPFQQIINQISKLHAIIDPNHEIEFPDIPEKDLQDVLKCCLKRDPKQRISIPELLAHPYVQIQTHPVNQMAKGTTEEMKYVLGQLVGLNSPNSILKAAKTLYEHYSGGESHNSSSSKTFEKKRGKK

[2] = AUC (0 to infinity) in Sprague-Dawley rat at 25 mg/kg, po; type: ADME, organism-based; parameters: time infinity, route oral, dose 25 mg/kg; details: in vivo
[3] = Cmax in Sprague-Dawley rat at 5 mg/kg, iv; type: ADME, organism-based; parameters: route intravenous, dose 5 mg/kg; details: in vivo
[4] = AUC (0 to infinity) in Sprague-Dawley rat at 5 mg/kg, iv; type: ADME, organism-based; parameters: route intravenous, time infinity, dose 5 mg/kg; details: in vivo
[5] = Half life in Sprague-Dawley rat at 25 mg/kg, po; type: ADME, organism-based; details: in vivo
[6] = target: T1, Dual specificity protein kinase TTK; experiment: Inhibition of recombinant full-length human TTK using MBP as substrate incubated for 40 mins in presence of [gamma33P]ATP by scintillation counting based radiometry assay relative to control
[7] = Half life in Sprague-Dawley rat at 5 mg/kg, iv; type: ADME, organism-based; details: in vivo
[8] = Cmax in Sprague-Dawley rat at 25 mg/kg, po; type: ADME, organism-based; parameters: route oral, dose 25 mg/kg; details: in vivo
[9] = Clearance in Sprague-Dawley rat at 5 mg/kg, iv; type: ADME, organism-based; details: in vivo
[10] = Oral bioavailability in Sprague-Dawley rat at 25 mg/kg; type: ADME, organism-based; details: in vivo
HCT-116 = experiment: Antitumor activity at human HCT-116 cells xenografted in CB17-SCID mouse assessed as tumor growth inhibition at 20 mg/kg, ip administered once weekly for 16 days relative to control; type: functional; details: HCT-116, ip, 384 h, time 16 day, read-out: TGI

Row | SMILES | Kd [1] [nM] | other results
1 | COc1cc(N2CCN(C)CC2)ccc1Nc1ncc2cc(C)c(=O)n([C@H]3CC[C@@H](NC(=O)C4CCCCC4)CC3)c2n1 | 0.17 | AUC(0-inf) [2]: 33300 ng·h/mL; Cmax [3]: 4740 ng/mL; AUC(0-inf) [4]: 15500 ng·h/mL; half-life [5]: 7.62 h; IC50 [6]: 20 nM; half-life [7]: 6.2 h; Cmax [8]: 2300 ng/mL; clearance [9]: 5.61 mL/min/kg; bioavailability [10]: 39.6%
2 | CCC(=O)N[C@H]1CC[C@@H](n2c(=O)ccc3cnc(Nc4ccc(N5CCN(C)CC5)cc4OC)nc32)CC1 | 0.41 | 
3 | CCC(=O)N[C@H]1CC[C@@H](n2c(=O)c(C)cc3cnc(Nc4ccc(N5CCN(C)CC5)cc4OC)nc32)CC1 | 0.29 | 
4 | COc1cc(N2CCN(C)CC2)ccc1Nc1ncc2c(C)cc(=O)n([C@H]3CC[C@@H](NC(=O)c4cccc5ccccc45)CC3)c2n1 | 1.1 | 
5 | CC(=O)O[C@H]1C(=O)[C@@]2(C)[C@H]([C@H](OC(=O)c3ccccc3)[C@]3(O)C[C@H](OC(=O)[C@H](O)[C@@H](NC(=O)c4ccccc4)c4ccccc4)C(C)=C1C3(C)C)[C@]1(OC(C)=O)CO[C@@H]1C[C@@H]2O [PACLITAXEL] |  | inhibition in vivo at 20 mg/kg (HCT-116): 52%
6 | COc1cc(N2CCN(C)CC2)ccc1Nc1ncc2c(C)cc(=O)n([C@H]3CC[C@@H](NCC4CC4)CC3)c2n1 | 6.1 | 
7 | CCC(=O)N[C@H]1CC[C@@H](n2c(=O)cc(C)c3cnc(Nc4ccc(N5CCN(C)CC5)cc4C)nc32)CC1 | 0.63 | 
8 | COc1cc(N2CCN(C)CC2)ccc1Nc1ncc2c(C)cc(=O)n([C@H]3CC[C@@H](NC(=O)C4CC4)CC3)c2n1 | 0.41 | 
9 | CCC(=O)N1CC[C@@H](n2c(=O)cc(C)c3cnc(Nc4ccc(N5CCN(C)CC5)cc4OC)nc32)C1 | 310 | 
10 | COc1cc(N2CCN(C)CC2)ccc1Nc1ncc2cc(C)c(=O)n([C@H]3CC[C@@H](NC(=O)C4CCCC4)CC3)c2n1 | 0.17 | IC50 [6]: 11 nM
11 | COc1cc(N2CCN(C)CC2)ccc1Nc1ncc2c(C)cc(=O)n([C@H]3CC[C@@H](NC(=O)c4ccccc4)CC3)c2n1 | 0.3 | 
12 | CCC(=O)N1CC(n2c(=O)cc(C)c3cnc(Nc4ccc(N5CCN(C)CC5)cc4OC)nc32)C1 | > 1000 | 

Second part, led by results:

Row | Kd [1] [nM] | SMILES | other results
13 | 0.56 | COc1cc(N2CCN(C)CC2)ccc1Nc1ncc2c(C)cc(=O)n([C@H]3CC[C@@H](NC(=O)C45CC6CC(CC(C6)C4)C5)CC3)c2n1 | 
14 | 0.5 | COc1cc(N2CCN(C)CC2)ccc1Nc1ncc2c(C)cc(=O)n([C@H]3CC[C@@H](NC(=O)C(C)C)CC3)c2n1 | 
15 | 0.2 | COc1cc(N2CCN(C)CC2)ccc1Nc1ncc2c(C)cc(=O)n([C@H]3CC[C@@H](NC(=O)C(C)(C)C)CC3)c2n1 | 
16 | 7.9 | CCC(=O)N[C@H]1CC[C@@H](n2c(=O)cc(C3CC3)c3cnc(Nc4ccc(N5CCN(C)CC5)cc4OC)nc32)CC1 | IC50 [6]: 50 nM
17 | 0.12 | COc1cc(N2CCN(C)CC2)ccc1Nc1ncc2c(C)cc(=O)n([C@H]3CC[C@@H](NC(=O)C4CCCC4)CC3)c2n1 | IC50 [6]: 19 nM
18 | 0.72 | COc1cc(N2CCN(C)CC2)ccc1Nc1ncc2c(C)cc(=O)n([C@H]3CC[C@@H](NC(C)=O)CC3)c2n1 | 
19 | 825 | CCC(=O)N[C@H]1CC[C@@H](n2c(=O)cc(-c3ccccc3)c3cnc(Nc4ccc(N5CCN(C)CC5)cc4OC)nc32)CC1 | 
20 | 3.9 | CCC(=O)N[C@H]1CC[C@@H](n2c(=O)cc(C)c3cnc(Nc4ccc(N5CCN(C)CC5)c(C)c4)nc32)CC1 | 
21 | 9.3 | CCC(=O)N1CCC(n2c(=O)cc(C)c3cnc(Nc4ccc(N5CCN(C)CC5)cc4OC)nc32)CC1 | 
22 | 2.8 | CCC(=O)N[C@H]1CC[C@H](n2c(=O)cc(C)c3cnc(Nc4ccc(N5CCN(C)CC5)cc4OC)nc32)CC1 | 
23 | 4.2 | CCC(=O)N[C@H]1CC[C@@H](n2c(=O)cc(C)c3cnc(Nc4ccc(N5CCN(C)CC5)c(OC)c4)nc32)CC1 | 
24 | 1.5 | CCC(=O)N[C@H]1CC[C@@H](n2c(=O)cc(CC)c3cnc(Nc4ccc(N5CCN(C)CC5)cc4OC)nc32)CC1 | 
25 | 190 | C=CC(=O)N1CC[C@H](n2c(=O)cc(C)c3cnc(Nc4ccc(N5CCN(C)CC5)cc4OC)nc32)C1 | 
26 | 0.71 | CCC(=O)N[C@H]1CC[C@@H](n2c(=O)cc(C)c3cnc(Nc4ccc(N5CCN(C)CC5)cc4OC)nc32)CC1 | 
27 | 250 | CCC(=O)N1CCC[C@@H](n2c(=O)cc(C)c3cnc(Nc4ccc(N5CCN(C)CC5)cc4OC)nc32)C1 | 
28 | 145 | CCC(=O)N1CC[C@H](n2c(=O)cc(C)c3cnc(Nc4ccc(N5CCN(C)CC5)cc4OC)nc32)C1 | 
29 | 200 | CCC(=O)N1CCC[C@H](n2c(=O)cc(C)c3cnc(Nc4ccc(N5CCN(C)CC5)cc4OC)nc32)C1 | 
